The record followed here is ChEMBL document CHEMBL2150879, “Novel indolethylbenzamides for the treatment of tauopathies: patent highlight” (ACS Med Chem Lett, 2012).

This experiment in a line: Inhibition of Tau P301L mutant-mediated cytotoxicity in human M17 cells by LDH assay. The format is cell-based.
Broadly, the EC50 is the concentration that produces a half-maximal response. A low value points to greater potency. `O=C(NCCc1c[nH]c2ccc(Cl)cc12)c1cccc(Cc2ccccc2)c1` gave an EC50 of 78 nM.

Compound `O=C(NCCc1c[nH]c2ccc(F)cc12)c1ccc(Cn2ccnc2)cc1` displayed an EC50 of 486 nM. `O=C(NCCc1c[nH]c2ccc(Cl)cc12)c1cccc(Nc2ccccc2)c1` showed an EC50 of 94 nM. The same measure for `N#Cc1ccc(Cc2ccc(C(=O)NCCc3c[nH]c4ccc(Cl)cc34)cc2)cc1`: 16 nM. The same measure for `N#Cc1cccc(Cc2ccc(C(=O)NCCc3c[nH]c4ccc(Cl)cc34)cc2)c1`: 14 nM; for `O=C(NCCc1c[nH]c2ccc(Cl)cc12)c1ccc(Cc2cccc(Cl)c2)cc1`: 7 nM; for `O=C(NCCc1c[nH]c2ccc(Cl)cc12)c1ccc(Cc2cccc(F)c2)cc1`: 13 nM. In turn, `COc1ccc(Cc2ccc(C(=O)NCCc3c[nH]c4ccc(Cl)cc34)cc2)cc1` displayed an EC50 of 147 nM. `O=C(NCCc1c[nH]c2ccc(Cl)cc12)c1cccc(Cc2cncc(F)c2)c1` returned an EC50 of 90 nM. This EC50 lies about 1.6-fold lower than the previous one.
